Measured values taken from patent US20240261224A1, “FORMULATION OF A PAN-JAK INHIBITOR” (KINASET THERAPEUTICS, INC., priority 2022, published 2024).
Where “and” joins values, the source holds several entries; their conditions need not be identical. Equal values may be shown once.

Key:
[1] = tested on: induced sputum eosinophil count; test: Phase 1 Part 3 induced sputum differential eosinophil count; assay type: in vivo, human; details: 4 mg BID
Source text: Day 10 sputum and serum inflammatory biomarkers are shown below in Table 29. Part 3 included an evaluation of sputum samples obtained by sputum induction in accordance with European Respiratory Society guidelines (Paggiaro, et al., Eur. Respir. J. 2002, 20: Suppl. 37, 3 s). Subjects were randomized into sputum-producer and non-sputum producer strata with a target minimum of approximately 50% of subjects able to provide an adequate sputum sample at screening. […] Differential cell counts (DCC) were performed on samples judged adequate per standard procedure and patients with evaluable baseline (screening) and Day 10 (or Day 11 if Day 10 was not adequate) post-treatment samples were considered for analyses that included individual and mean absolute and percentage differential eosinophil counts.
In the sputum producer stratum, 6 Compound I (active) subjects and 2 placebo subjects were identified as having adequate baseline and post-treatment sputum samples and the resultant data was used to determine change from baseline, mean change from baseline, and mean placebo-corrected change from baseline (Compound I vs placebo). […] At baseline, all subjects manifested a percent differential eosinophil count >3%, indicative of active eosinophilic inflammation. By Day 10, 66% ( 4/6) of active subjects had improved below 3% eosinophils, with 50% ( 3/6) below a more stringent threshold of 1.9% (Reddel et al., Am. J. Respir. Crit. Care Med. 2009, 180, 59).

[2] = Margin of safety study versus 13-wk NHP NOAEL; assay type: in vivo
Source text: Results from the margin of safety study of lactose/MgSt-based formulations of Compound I are shown below in Table 17.

[3] = tested on: fractional exhaled nitric oxide (FeNO); test: Phase 1 Part 3: FeNO reduction in moderate to severe asthma on background ICS/LABA; assay type: in vivo, human; details: for Mean Placebo-Corrected % Change from Day 1 Pre-Dose or from Patient's Baseline (FeNO): 4 mg BID (n = 5), Baseline FeNO >35 ppb and blood eosinophils >250 cells/μL; for % subjects achieving FeNO level <25 ppb on Day 10: 4.0 mg BID
Method: A status summary of the phase 1 clinical trial recruitment is shown below in Table 18. Capsules filled with blend 2a were used to achieve a 0.6 mg target dose of Compound I (0.2 mg capsules×3). Capsules filled with blend 4 were used to achieve 2.0 mg, 4.0 mg, 6.0 mg, 8.0 mg, and 12.0 mg target doses of Compound I (2.0 mg capsule×1; 4.0 mg capsule×1; 2.0 mg capsules×3; 4.0 mg capsules×2; and 4.0 mg capsules×3, respectively). Twice daily dosing (BID) was achieved by repeating the preceding regime. For example, an 8.0 mg BID dosing regime is achieved by administering two doses of 4.0 mg capsules×2.
Particular FeNO reduction data from FIG. 9 is highlighted below in Table 25. […] More specifically, subjects with Day 1 pre-dose FeNO levels between 33 and 280 ppb reported reductions greater than 20% by Day 10 and subjects with Day 1 pre-dose FeNO levels ranging from 33 to 118 ppb recorded levels less than 25 ppb by Day 10.
Part 3 involved the administration of a single dose regimen (4 mg BID), to subjects (17 active:6 placebo) with moderate to severe asthma treated with background ISC/LABA therapy, over a 10-day period. Blood samples were collected to enable the measurement of KN-002 concentrations in plasma. The resultant data was used to determine the pharmacokinetic parameters at Day 10 representing the Day on which the final dose was received.

[4] = individual active subjects 13026, 13027, 13038, 13073, 13095, 13097 (c1-c6)
[5] = 4.0 mg BID vs 13-week NHP study

Cn1c(=O)n([C@H]2CCCN(C(=O)CC#N)C2)c2nc(-c3cnn4ccccc34)ccc21 [Compound I, (S)-3-(3-(1-methyl-2-oxo-5-(pyrazolo[1,5-a]pyridine-3-yl)-1H-imidazo[4,5-b]pyridine-3(2H)-yl)piperidin-1-yl)-3-oxopropanenitrile]
Induced sputum absolute differential eosinophil count, Day 10 level ([1]; Mean of active subjects (n = 6)): 0.04 10^6/g
Induced sputum % differential eosinophil count, Day 10 level [1, 4]: 7.0% and 2.5% and 1.0% (2×) and 10.5% and 0.3%
Induced sputum absolute differential eosinophil count, Day 10 level [1, 4]: 0.07 10^6/g and 0.03 10^6/g and 0.01 10^6/g (2×) and 0.12 10^6/g and 0.001 10^6/g
MoS versus inhalation toxicology study NOAELs, Lung exposure (mg/g lung) [2, 5]: 50
MoS versus inhalation toxicology study NOAELs, Plasma (group mean AUC0-24) [2, 5]: 3.2
Group mean AUC0-24 MoS (Phase 1 clinical study versus inhalation tox study NOAELs) ([2]; 4.0 mg BID vs 13-wk NHP NOAEL): 3.2
Lung dose of Compound I (mg/g) MoS ([2]; 4.0 mg BID vs 13-wk NHP NOAEL, adjusted for respirability assuming 10%, 25% and 100% lung deposition in rat, NHP and human): 50
Mean Placebo-Corrected % Change from Day 1 Pre-Dose or from Patient's Baseline (FeNO) ([3]; Day 10 + 3 hrs): −37%
Mean Placebo-Corrected % Change from Day 1 Pre-Dose or from Patient's Baseline (FeNO) ([3]; Day 10 + 6 hrs): −43%
Mean Placebo-Corrected % Change from Day 1 Pre-Dose or from Patient's Baseline (FeNO) ([3]; Day 10 + 12 hrs): −47%
Mean Placebo-Corrected % Change from Day 1 Pre-Dose or from Patient's Baseline (FeNO) ([3]; Day 10 mean): −43%
Mean Placebo-Corrected % Change from Day 1 Pre-Dose or from Patient's Baseline (FeNO) ([3]; Day 10 pre-dose): −44%
% subjects achieving FeNO level <25 ppb on Day 10 ([3]; ITT): 59%
Mean placebo-corrected % FeNO reduction from Day 1 pre-dose ([3]; 4 mg BID, ITT (n = 17), Day 10 + 3 hours): −13.7%
Mean placebo-corrected % FeNO reduction from Day 1 pre-dose ([3]; 4 mg BID, ITT (n = 17), Day 10 + 6 hours): −24.0%
Mean placebo-corrected % FeNO reduction from Day 1 pre-dose ([3]; 4 mg BID, ITT (n = 17), Day 10 + 12 hours): −36.3%
Mean placebo-corrected % FeNO reduction from Day 1 pre-dose ([3]; 4 mg BID, ITT (n = 17), Day 10 mean): −24.2%
Mean placebo-corrected % FeNO reduction from Day 1 pre-dose ([3]; 4 mg BID, ITT (n = 17), Day 10 pre-dose): −22.9%
% subjects achieving FeNO level <25 ppb on Day 10 ([3]; PP (excludes Day 1 pre-dose FeNO <30 ppb)): 52%
Mean placebo-corrected % FeNO reduction from Day 1 pre-dose ([3]; 4 mg BID, PP (n = 15, excludes Day 1 pre-dose FeNO <30 ppb), Day 10 + 3 hours): −24.8%
Mean placebo-corrected % FeNO reduction from Day 1 pre-dose ([3]; 4 mg BID, PP (n = 15, excludes Day 1 pre-dose FeNO <30 ppb), Day 10 + 6 hours): −33.3%
Mean placebo-corrected % FeNO reduction from Day 1 pre-dose ([3]; 4 mg BID, PP (n = 15, excludes Day 1 pre-dose FeNO <30 ppb), Day 10 + 12 hours): −37.0%
Mean placebo-corrected % FeNO reduction from Day 1 pre-dose ([3]; 4 mg BID, PP (n = 15, excludes Day 1 pre-dose FeNO <30 ppb), Day 10 mean): −31.9%
Mean placebo-corrected % FeNO reduction from Day 1 pre-dose ([3]; 4 mg BID, PP (n = 15, excludes Day 1 pre-dose FeNO <30 ppb), Day 10 pre-dose): −32.7%
FeNO reductions by Day 10 ([3]; 4 mg BID, subjects with Day 1 pre-dose FeNO levels between 33 and 280 ppb): greater than 20%
FeNO levels by Day 10 ([3]; 4 mg BID, subjects with Day 1 pre-dose FeNO levels ranging from 33 to 118 ppb): less than 25 ppb
Mean placebo-corrected change in FeNO from Day 1 pre-dose, blood eosinophil subgroup ([3]; Blood eosinophil cut-off ≥0.15 × 10^9/L (n = 16), Day 10 + 3 hours): −26
Mean placebo-corrected change in FeNO from Day 1 pre-dose, blood eosinophil subgroup ([3]; Blood eosinophil cut-off ≥0.15 × 10^9/L (n = 16), Day 10 + 6 hours): −35
Mean placebo-corrected change in FeNO from Day 1 pre-dose, blood eosinophil subgroup ([3]; Blood eosinophil cut-off ≥0.15 × 10^9/L (n = 16), Day 10 + 12 hours): −52
Mean placebo-corrected change in FeNO from Day 1 pre-dose, blood eosinophil subgroup ([3]; Blood eosinophil cut-off ≥0.15 × 10^9/L (n = 16), Day 10 mean): −37
Mean placebo-corrected change in FeNO from Day 1 pre-dose, blood eosinophil subgroup ([3]; Blood eosinophil cut-off ≥0.15 × 10^9/L (n = 16), Day 10 pre-dose): −34
Mean placebo-corrected change in FeNO from Day 1 pre-dose, blood eosinophil subgroup ([3]; Blood eosinophil cut-off ≥0.3 × 10^9/L (n = 11), Day 10 + 3 hours): −44
Mean placebo-corrected change in FeNO from Day 1 pre-dose, blood eosinophil subgroup ([3]; Blood eosinophil cut-off ≥0.3 × 10^9/L (n = 11), Day 10 + 6 hours): −54
Mean placebo-corrected change in FeNO from Day 1 pre-dose, blood eosinophil subgroup ([3]; Blood eosinophil cut-off ≥0.3 × 10^9/L (n = 11), Day 10 + 12 hours): −75
Mean placebo-corrected change in FeNO from Day 1 pre-dose, blood eosinophil subgroup ([3]; Blood eosinophil cut-off ≥0.3 × 10^9/L (n = 11), Day 10 mean): −57
Mean placebo-corrected change in FeNO from Day 1 pre-dose, blood eosinophil subgroup ([3]; Blood eosinophil cut-off ≥0.3 × 10^9/L (n = 11), Day 10 pre-dose): −53
